Results as given in ChEMBL document CHEMBL4665634, “Inhibiting Aβ toxicity in Alzheimer's disease by a pyridine amine derivative” (Eur J Med Chem, 2019).

How the values were obtained:
[1] = Metal chelating activity assessed as Cu2+-compound complex formation by measuring binding constant in 0.1 M KNO3 at 25 degreeC
[2] = Metal chelating activity assessed as Zn2+-compound complex formation by measuring binding constant in 0.1 M KNO3 at 25 degreeC

log K [1]: 9.3 | log K [2]: 7.6
SMILES: c1ccc(CNCc2ccccn2)nc1
